Results on eight compounds are retold here after patent US12162836B2, “N-acyl-{4-[(4-aryl-phenyl)sulfonylmethyl]piperidine} compounds and their therapeutic use” (Modern Biosciences Limited, priority 2019, dated 2024).

Data set [1] addresses CYP2D6 (Homo sapiens (Human), UniProt P10635). In words: Human Cytochrome P450 Inhibition Assay (Bactosomes). Format: in vitro ADME. The settings on record: recombinant Bactosomes, 10 minutes. The procedure: (§1) The ability of test compounds to inhibit five of the most relevant cytochrome P450 enzymes was measured by determination of the activity of cytochrome P450 enzymes in recombinant cytochrome preparations, called Bactosomes (Cypex Ltd, Dundee, Scotland UK DD2 1 NH), in the presence of a specific probe substrate. Bactosomes are a highly efficient and cost-effective source of recombinant CYP450s which have a higher specific activity of enzyme compared to other sources, such as liver microsomes. […] The following CYP450 isoforms were assayed: CYP1A2, CYP2C9, CYP2C19, CYP2D6 and CYP3A4. The study of CYP450 inhibition potential in Bactosomes is accepted as a valuable model permitting rapid prediction of potential drug-drug interactions in vivo (see, e.g., Weaver et al., 2003).
(§2) Bactosomes were obtained from a commercial source (Cypex, Scotland, UK). Test compounds were incubated with Bactosomes at 6 concentrations. Samples were incubated for 10 minutes, after which the reaction was stopped and the samples analysed by LC-MS/MS Multiple Reaction Monitoring (MRM) for the presence/amount of substrate probe.
(§3) CYP450 enzymes (final protein 75 pmol/mL for CYP1A2; 12.5 pmol/mL for CYP2C19; and 25 pmol/mL for CYP2C9, 2D6 and 3A4), 0.1 M phosphate buffer pH 7.4, probe and test compound (final concentration 50, 15.8, 5, 1.58, 0.5 and 0.158 μM; diluted from 10 mM stock solution to give a final DMSO concentration of 1%) were pre-incubated at 37° C. for 5 minutes. The reaction was initiated by the addition of 20 μL of 10 mM NADPH in phosphate buffer. The final incubation volume was 200 μL. The following control inhibitors were used for each CYP450 inhibition assay: CYP1A2: α-naphthoflavone; CYP2C9: sulfaphenazole; CYP2C19: tranylcypromine; CYP2D6: quinidine; CYP3A4: ketoconazole.
(§4) Each compound was incubated for 10 minutes at 37° C. The reactions were stopped by the addition of methanol (final composition 1:1, aqueous: methanol). The incubation plates were shaken, chilled at […] for 2 hours, and centrifuged at 3500 rpm for 15 minutes at 4° C. to precipitate the protein.

Data set [2] has as its target CYP3A4 (Homo sapiens (Human), UniProt P08684). The data set is described as above. It is filed as in vitro ADME. The settings on record: recombinant Bactosomes, 10 minutes. The procedure:
as §1, §2, §3, §4

Data set [3] has as its target CYP2C19 (Homo sapiens (Human), UniProt P33261). The data set is described as above. It is filed as in vitro ADME. The settings on record: recombinant Bactosomes, 10 minutes. The procedure:
as §1, §2, §3, §4

Data set [4] addresses CYP1A2 (Homo sapiens (Human), UniProt P05177). The data set is described as above. It is filed as in vitro ADME. As to conditions: recombinant enzyme. The procedure: as §1, §2, §3, §4
In data set [5] the target is CYP2C9 (Homo sapiens (Human), UniProt P11712). Described as above. As to conditions: recombinant Bactosomes, 10 minutes. It is filed as in vitro ADME. The procedure: as §1, §2, §3, §4
Chain of CYP2C9 (P11712 whole entry): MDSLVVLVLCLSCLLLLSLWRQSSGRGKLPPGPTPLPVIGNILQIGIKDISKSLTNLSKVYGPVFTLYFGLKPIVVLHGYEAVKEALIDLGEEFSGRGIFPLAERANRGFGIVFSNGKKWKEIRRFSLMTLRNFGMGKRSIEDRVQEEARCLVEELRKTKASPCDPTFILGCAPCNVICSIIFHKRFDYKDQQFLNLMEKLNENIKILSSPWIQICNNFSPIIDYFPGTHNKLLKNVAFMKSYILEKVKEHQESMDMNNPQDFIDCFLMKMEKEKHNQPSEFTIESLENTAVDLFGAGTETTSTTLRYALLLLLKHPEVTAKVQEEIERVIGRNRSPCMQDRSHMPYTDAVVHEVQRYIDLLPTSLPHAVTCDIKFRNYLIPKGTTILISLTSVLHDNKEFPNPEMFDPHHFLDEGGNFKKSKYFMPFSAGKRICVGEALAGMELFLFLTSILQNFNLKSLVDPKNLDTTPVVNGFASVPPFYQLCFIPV
Data set [6] in a line: Human Hepatocyte Stability. It is filed as in vitro ADME. As to conditions: pooled human hepatocytes, 1 μM, 60 minute incubation; for half-life at 1 μM: read-out: Human t1/2. In a few lines:
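Compounds at 1 μM final (0.1% DMSO, 0.9% acetonitrile) were incubated with pooled human hepatocytes at 37 °C in duplicate and sampled at 0–60 min. Samples were quenched in methanol with tolbutamide and analysed by LC-MS/MS. k came from the ln(concentration)–time slope, giving t1/2 and Clint normalised to hepatocyte concentration.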

The target in data set [7] is hERG (Homo sapiens (Human), UniProt Q12809). In words: hERG Ion Channel binding assay (3H astemizole displacement). As to conditions: human, membranes of HEK293 cells stably expressing hERG, pH 7.4, probe 3H astemizole (1.5 nM); 30 μM; displacement of 3H astemizole, hERG-HEK293 membranes. In a few lines: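 Membranes from stably transfected hERG-HEK293 cells incubated with 1.5 nM ³H-astemizole ± test compound in HEPES buffer pH 7.4 (0.1% BSA, 5 mM KCl, 130 mM NaCl) at 25° C for 60 min. Bound ligand measured by filtration and scintillation counting; reported as % displacement (0% none, 100% complete).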
Chain of hERG (Q12809 whole entry): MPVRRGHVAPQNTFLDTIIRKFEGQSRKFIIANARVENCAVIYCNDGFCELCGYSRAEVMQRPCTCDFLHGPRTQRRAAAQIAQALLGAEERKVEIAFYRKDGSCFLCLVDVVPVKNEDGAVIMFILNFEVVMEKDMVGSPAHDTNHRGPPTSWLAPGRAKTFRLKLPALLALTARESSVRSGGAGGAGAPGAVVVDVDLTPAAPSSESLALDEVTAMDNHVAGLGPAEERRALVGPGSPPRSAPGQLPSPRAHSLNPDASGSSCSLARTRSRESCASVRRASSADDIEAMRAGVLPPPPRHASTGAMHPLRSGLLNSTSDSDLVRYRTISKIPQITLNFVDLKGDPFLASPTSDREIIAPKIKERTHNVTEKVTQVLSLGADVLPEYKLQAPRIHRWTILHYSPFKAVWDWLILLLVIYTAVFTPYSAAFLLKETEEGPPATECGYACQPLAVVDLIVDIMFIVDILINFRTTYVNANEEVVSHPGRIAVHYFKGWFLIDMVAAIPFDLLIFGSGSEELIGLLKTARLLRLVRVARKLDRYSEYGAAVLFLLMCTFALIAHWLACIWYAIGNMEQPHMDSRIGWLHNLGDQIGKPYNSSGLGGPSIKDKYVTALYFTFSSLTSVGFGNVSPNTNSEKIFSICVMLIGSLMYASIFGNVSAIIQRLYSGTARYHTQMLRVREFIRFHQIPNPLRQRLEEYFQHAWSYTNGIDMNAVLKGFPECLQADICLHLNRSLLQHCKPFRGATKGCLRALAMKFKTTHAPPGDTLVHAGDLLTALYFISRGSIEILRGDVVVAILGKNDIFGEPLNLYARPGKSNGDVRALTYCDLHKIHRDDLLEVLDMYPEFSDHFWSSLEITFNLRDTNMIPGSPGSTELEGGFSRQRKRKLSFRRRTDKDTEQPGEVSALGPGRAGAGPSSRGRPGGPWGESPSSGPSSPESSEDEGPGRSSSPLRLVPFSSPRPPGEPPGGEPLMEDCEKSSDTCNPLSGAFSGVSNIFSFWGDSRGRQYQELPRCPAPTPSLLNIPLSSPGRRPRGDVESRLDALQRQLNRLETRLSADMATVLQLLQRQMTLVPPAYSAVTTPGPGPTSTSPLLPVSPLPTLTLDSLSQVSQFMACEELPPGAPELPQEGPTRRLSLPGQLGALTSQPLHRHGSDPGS

Where only a bound is given, the exact number is not on record here.

Chain of CYP3A4 (P08684 whole entry): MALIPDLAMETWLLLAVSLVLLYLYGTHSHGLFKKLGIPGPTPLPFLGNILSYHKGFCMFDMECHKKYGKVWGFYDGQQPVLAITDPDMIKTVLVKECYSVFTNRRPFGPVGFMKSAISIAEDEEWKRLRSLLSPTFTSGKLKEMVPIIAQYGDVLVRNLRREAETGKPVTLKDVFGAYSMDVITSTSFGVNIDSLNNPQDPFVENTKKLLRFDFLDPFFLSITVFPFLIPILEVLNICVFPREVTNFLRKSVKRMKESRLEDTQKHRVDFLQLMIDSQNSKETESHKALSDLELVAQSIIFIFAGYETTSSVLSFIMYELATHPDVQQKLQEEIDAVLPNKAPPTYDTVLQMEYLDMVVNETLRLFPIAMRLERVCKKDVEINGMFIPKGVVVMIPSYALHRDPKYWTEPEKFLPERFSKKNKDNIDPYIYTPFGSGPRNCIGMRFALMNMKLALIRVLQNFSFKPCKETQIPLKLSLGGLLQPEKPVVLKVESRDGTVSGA
Chain of CYP2C19 (P33261 whole entry): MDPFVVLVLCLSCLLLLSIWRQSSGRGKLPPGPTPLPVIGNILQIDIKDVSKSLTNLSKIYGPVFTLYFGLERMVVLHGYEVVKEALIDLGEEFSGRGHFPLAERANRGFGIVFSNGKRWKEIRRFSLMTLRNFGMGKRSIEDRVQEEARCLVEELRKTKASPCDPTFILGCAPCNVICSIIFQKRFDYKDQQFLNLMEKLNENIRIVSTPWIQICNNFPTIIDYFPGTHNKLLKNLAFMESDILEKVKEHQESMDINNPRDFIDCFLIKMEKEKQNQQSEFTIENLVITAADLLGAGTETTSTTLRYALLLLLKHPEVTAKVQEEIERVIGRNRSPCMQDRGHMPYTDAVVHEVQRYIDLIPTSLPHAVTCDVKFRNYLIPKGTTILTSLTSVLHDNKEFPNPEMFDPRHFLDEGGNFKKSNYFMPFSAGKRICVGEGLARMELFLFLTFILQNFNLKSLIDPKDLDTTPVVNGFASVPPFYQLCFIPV
Chain of CYP2D6 (P10635 whole entry, canonical isoform): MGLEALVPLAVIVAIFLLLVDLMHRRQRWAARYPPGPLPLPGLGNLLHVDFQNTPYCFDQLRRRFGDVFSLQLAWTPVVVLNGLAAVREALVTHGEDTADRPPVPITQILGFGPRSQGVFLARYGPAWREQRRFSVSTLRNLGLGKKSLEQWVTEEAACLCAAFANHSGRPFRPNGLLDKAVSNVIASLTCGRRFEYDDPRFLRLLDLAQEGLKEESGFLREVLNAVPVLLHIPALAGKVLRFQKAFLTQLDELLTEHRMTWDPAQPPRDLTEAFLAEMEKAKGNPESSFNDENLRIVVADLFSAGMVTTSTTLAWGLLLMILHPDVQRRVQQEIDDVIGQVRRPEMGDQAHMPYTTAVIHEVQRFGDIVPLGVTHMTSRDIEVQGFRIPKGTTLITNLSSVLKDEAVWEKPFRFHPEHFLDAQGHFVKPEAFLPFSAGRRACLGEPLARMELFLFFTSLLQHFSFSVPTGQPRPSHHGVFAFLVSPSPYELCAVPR
Chain of CYP1A2 (P05177 whole entry): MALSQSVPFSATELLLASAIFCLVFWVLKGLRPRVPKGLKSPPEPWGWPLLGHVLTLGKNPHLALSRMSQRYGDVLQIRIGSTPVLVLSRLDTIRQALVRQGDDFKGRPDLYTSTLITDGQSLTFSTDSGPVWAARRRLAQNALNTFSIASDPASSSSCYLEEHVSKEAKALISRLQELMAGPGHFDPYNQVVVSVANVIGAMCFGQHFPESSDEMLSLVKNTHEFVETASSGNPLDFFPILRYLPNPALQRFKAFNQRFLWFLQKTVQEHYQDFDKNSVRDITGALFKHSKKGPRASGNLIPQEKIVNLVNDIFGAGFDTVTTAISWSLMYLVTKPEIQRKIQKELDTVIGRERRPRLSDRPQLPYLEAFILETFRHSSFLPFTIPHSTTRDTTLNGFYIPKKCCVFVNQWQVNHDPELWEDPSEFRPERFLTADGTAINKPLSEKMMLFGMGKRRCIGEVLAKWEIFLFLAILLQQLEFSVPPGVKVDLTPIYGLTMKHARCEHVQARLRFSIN

A word on the IC50: it is the concentration needed to halve the response being measured. For orientation: inhibition means the share of the control response that was lost under treatment. Low readings indicate little suppression, high ones strong suppression. Regarding `CC(=O)N1CCC(CS(=O)(=O)c2ccc(-c3ccc(Cl)cc3C#N)cc2)CC1` [NASMP-06, 4′-(((1-Acetylpiperidin-4-yl)methyl)sulfonyl)-4-chloro-[1,1′-biphenyl]-2-carbonitrile], the IC50 in data set [1] is > 50 µM; in data set [2], > 50 µM; in data set [3], > 50 µM; in data set [4] (human, 10 min, pH 7.4), > 50 µM; in data set [5], 42.7 µM. The half-life at 1 μM in data set [6] is > 60 min. The inhibition at 60 min, 30 µM in data set [7] stood at 35%.

For the compound `CCC(=O)N1CCC(CS(=O)(=O)c2ccc(-c3ccc(F)cc3F)cc2)CC1` [NASMP-15, 1-(4-(((2′,4′-Difluoro-[1,1′-biphenyl]-4-yl)sulfonyl)methyl)piperidin-1-yl)propan-1-one], the IC50 was > 50 µM in data set [1]; > 50 µM in data set [2]; > 50 µM in data set [3]; > 50 µM in data set [4] (human, 10 min, pH 7.4); 21.5 µM in data set [5]. Moreover, in data set [6], the half-life at 1 μM is > 60 min. The compound also displayed an inhibition at 60 min, 30 µM in data set [7] of 45%.

`CC(=O)N1CCC(CS(=O)(=O)c2ccc(-c3ccc(F)cc3F)cc2C(F)(F)F)CC1` [NASMP-12, 1-(4-(((2′,4′-Difluoro-3-(trifluoromethyl)-[1,1′-biphenyl]-4-yl)sulfonyl)methyl)piperidin-1-yl)ethan-1-one]: the IC50 is 45.4 µM in data set [1]; > 50 µM in data set [2]; > 50 µM in data set [3]; > 50 µM in data set [4] (human, 10 min, pH 7.4); 15.4 µM in data set [5]. Moreover, the inhibition at 60 min, 30 µM in data set [7] was 35%.

One may read the hepatocyte CLint as the capacity of the preparation to metabolise the compound, expressed as a volume cleared per time. Consider `CC(=O)N1CCC(CS(=O)(=O)c2ccc(-c3ccc(C(F)(F)F)cc3F)cc2)CC1` [NASMP-07, 1-(4-(((2′-Fluoro-4′-(trifluoromethyl)-[1,1′-biphenyl]-4-yl)sulfonyl)methyl)piperidin-1-yl)ethan-1-one], for which the IC50 in data set [1] was > 50 µM; in data set [2] it was > 50 µM; in data set [3], 36.4 µM; in data set [4] (human, 10 min, pH 7.4), > 50 µM; in data set [5], 19.6 µM. This compound returned a hepatocyte CLint at 1 μM in data set [6] of 1.1 µL/min/1e6 cells. The half-life at 1 μM in data set [6] was > 60 min. Moreover, the inhibition at 60 min, 30 µM in data set [7] was determined as 79%.

In the case of `CC(=O)N1CCC(CS(=O)(=O)c2ccc(-c3c(F)cccc3F)cc2)CC1` [NASMP-09, 1-(4-(((2′,6′-Difluoro-[1,1′-biphenyl]-4-yl)sulfonyl)methyl)piperidin-1-yl)ethan-1-one], the IC50 in data set [1] was > 50 µM; in data set [2], 44.5 µM; in data set [3], 17.8 µM; in data set [4] (human, 10 min, pH 7.4), > 50 µM; in data set [5], > 50 µM. In addition, in data set [6], the hepatocyte CLint at 1 μM was < 3.4 µL/min/1e6 cells. Besides, in data set [6], the half-life at 1 μM is > 412 min. This compound returned an inhibition at 60 min, 30 µM in data set [7] of 7%.

For the compound `CC1(O)CCC(NS(=O)(=O)c2ccc(-c3ccc(F)cc3F)cc2)CC1` (stereo not shown) [ABD899, reference compound], the IC50 in data set [1] is 45.3 µM; in data set [2], 21.6 µM; in data set [3], 7.3 µM; in data set [4] it was > 25 µM; in data set [5], 3.9 µM.

For the compound `CC(=O)N1CCC(CS(=O)(=O)c2ccc(-c3ccc(C#N)cc3Cl)cc2)CC1` [NASMP-05, 4′-(((1-Acetylpiperidin-4-yl)methyl)sulfonyl)-2-chloro-[1,1′-biphenyl]-4-carbonitrile], the IC50 in data set [1] was > 50 µM; in data set [2], > 50 µM; in data set [3], > 50 µM; in data set [4] (human, 10 min, pH 7.4), > 50 µM; in data set [5] it was > 50 µM. The inhibition at 60 min, 30 µM in data set [7] is 23%.

Turning to `CC(=O)N1CCC(CS(=O)(=O)c2ccc(-c3ccc(F)cc3F)cc2)CC1` [NASMP-01, 1-(4-(((2′,4′-Difluoro-[1,1′-biphenyl]-4-yl)sulfonyl)methyl)piperidin-1-yl)ethan-1-one], the IC50 in data set [1] is > 50 µM; in data set [2], > 50 µM; in data set [3], > 50 µM; in data set [4] (human, 10 min, pH 7.4), > 50 µM; in data set [5], > 50 µM. Moreover, the hepatocyte CLint at 1 μM in data set [6] was < 3 µL/min/1e6 cells. Also, in data set [6], the half-life at 1 μM is > 460 min. In data set [7], this compound yielded an inhibition at 60 min, 30 µM of 14%.
